Measurements from US20070128217A1 (priority 2003, published 2007).

Assays:
[1] = tested on: control sera (pooled serum of ten healthy LUMC hospital workers; commercial negative donor pooled serum from the Dutch bloodbank); assay type: binding, human; parameters: Binding of Control serum LUMC to linear peptides / Binding of Control serum Blood-bank to linear peptides / Binding of Control serum LUMC to looped peptides / Binding of Control Serum Blood-Bank to Looped peptides / Binding of Control serum LUMC to linear peptides of the protein M of SARS-CoV Urbani / Binding of Control serum Blood-bank to linear peptides of the protein M of SARS-CoV Urbani / Binding of Control serum LUMC to looped peptides of the protein M of SARS-CoV Urbani / Binding of Control Serum Blood-Bank to Looped peptides of the protein M of SARS-CoV Urbani: unit not given here
[2] = tested on: antibodies in sera from SARS patients (sera 1a, 1b, 2, 6, 37, 62, London, SARS-yellow, SARS-green); assay type: binding, human; parameters: Binding of serum 6 to linear peptides of protein X1 of SARS-CoV Urbani / Binding of serum 37 to linear peptides of protein X1 of SARS-CoV Urbani / Binding of serum 6 to looped/cyclic peptide (PEPSCAN-ELISA) / Binding of serum 37 to looped/cyclic peptide (PEPSCAN-ELISA) / Binding of serum 37 to looped/cyclic peptides of protein X1 of SARS-CoV Urbani / Binding of serum 6 to linear peptides of protein X2 / Binding of serum 37 to linear peptides of protein X2 / Binding of serum 37 to looped/cyclic peptides of protein X2 of SARS-CoV Urbani / Binding of serum 6 to linear peptides of protein M of SARS-CoV Urbani / Binding of serum 37 to linear peptides of protein M of SARS-CoV Urbani / Binding of serum 6 to looped/cyclic peptides of protein M of SARS-CoV Urbani / Binding of serum 37 to looped/cyclic peptides of protein M of SARS-CoV Urbani / Binding of serum 6 to linear peptides of protein X3 of SARS-CoV Urbani / Binding of serum 37 to linear peptides of protein X3 of SARS-CoV Urbani / Binding of serum 37 to looped/cyclic peptides of protein X3 of SARS-CoV Urbani / Binding of serum 6 to linear peptides of protein X4 of SARS-CoV Urbani / Binding of serum 37 to linear peptides of protein X4 of SARS-CoV Urbani / Binding of serum 37 to looped/cyclic peptides of protein X4 of SARS-CoV Urbani / Binding of serum 6 to linear peptides of protein X5 of SARS-CoV Urbani / Binding of serum 37 to linear peptides of protein X5 of SARS-CoV Urbani / Binding of serum 37 to looped/cyclic peptides of protein X5 of SARS-CoV Urbani / Binding of serum 6 to linear peptides of protein N of SARS-CoV Urbani / Binding of serum 37 to linear peptides of protein N of SARS-CoV Urbani / Binding of serum 6 to linear peptide (PEPSCAN-ELISA) / Binding of serum 1a to looped/cyclic peptides of protein N of SARS-CoV Urbani / Binding of serum 1b to looped/cyclic peptides of protein N of SARS-CoV Urbani / Binding of serum 2 to looped/cyclic peptides of protein N of SARS-CoV Urbani / Binding of serum 6 to looped/cyclic peptides of protein N of SARS-CoV Urbani / Binding of serum 37 to looped/cyclic peptides of protein N of SARS-CoV Urbani / Binding of serum 62 to looped/cyclic peptides of protein N of SARS-CoV Urbani / Binding of serum London to looped/cyclic peptides of protein N of SARS-CoV Urbani / Binding of serum SARS-green to looped/cyclic peptides of protein N of SARS-CoV Urbani: unit not given here
[3] = tested on: rabbit serum obtained by immunizing a rabbit with the SARS-CoV strain Frankfurt 1; assay type: binding; parameters: Binding of a rabbit serum to linear peptides / Binding of a rabbit serum to looped peptides / Rabbit serum linear peptides / Rabbit serum looped peptides / Binding of a rabbit serum to linear peptides of protein N of SARS-CoV Urbani (Rabbit serum linear peptides) / Binding of a rabbit serum to looped/cyclic peptides of protein N of SARS-CoV Urbani (Rabbit serum looped peptides): unit not given here

CLKILVRYNTRGNTY
0.5: Binding of serum 1a to looped/cyclic peptides of protein X5 of SARS-CoV Urbani [2] | Binding of serum 2 to looped/cyclic peptides of protein X5 of SARS-CoV Urbani [2] | Binding of serum 37 to looped/cyclic peptides of protein X5 of SARS-CoV Urbani [2]
0.8: Binding of Control serum Blood-bank to linear peptides [1] | Binding of serum 2 to linear peptides of protein X5 of SARS-CoV Urbani [2] | Binding of serum 6 to linear peptides of protein X5 of SARS-CoV Urbani [2] | Binding of serum 62 to linear peptides of protein X5 of SARS-CoV Urbani [2] | Binding of serum SARS-yellow to looped/cyclic peptides of protein X5 of SARS-CoV Urbani [2]
1.1: Rabbit serum linear peptides [3]
0.3: Binding of serum SARS-yellow to linear peptides of protein X5 of SARS-CoV Urbani [2]
0.6: Binding of Control serum LUMC to looped peptides [1]
0.7: Binding of serum 1a to linear peptides of protein X5 of SARS-CoV Urbani [2] | Binding of serum 1b to linear peptides of protein X5 of SARS-CoV Urbani [2] | Binding of serum 37 to linear peptides of protein X5 of SARS-CoV Urbani [2] | Binding of serum 62 to looped/cyclic peptides of protein X5 of SARS-CoV Urbani [2] | Binding of serum London to linear peptides of protein X5 of SARS-CoV Urbani [2] | Binding of serum SARS-green to linear peptides of protein X5 of SARS-CoV Urbani [2]
0.2: Binding of serum 1b to looped/cyclic peptides of protein X5 of SARS-CoV Urbani [2] | Binding of serum London to looped/cyclic peptides of protein X5 of SARS-CoV Urbani [2] | Rabbit serum looped peptides [3]
0.4: Binding of Control Serum Blood-Bank to Looped peptides [1] | Binding of Control serum LUMC to linear peptides [1] | Binding of serum 6 to looped/cyclic peptides of protein X5 of SARS-CoV Urbani [2] | Binding of serum SARS-green to looped/cyclic peptides of protein X5 of SARS-CoV Urbani [2]

DPPNVQIHTIDGSSG
0.4: Binding of Control Serum Blood-Bank to Looped peptides [1] | Binding of serum 1a to looped/cyclic peptides of protein X1 of SARS-CoV Urbani [2] | Binding of serum 1b to linear peptides of protein X1 of SARS-CoV Urbani [2] | Binding of serum 62 to linear peptides of protein X1 of SARS-CoV Urbani [2] | Binding of a rabbit serum to looped peptides [3]
0.2: Binding of serum 1b to looped/cyclic peptides of protein X1 of SARS-CoV Urbani [2] | Binding of serum 2 to looped/cyclic peptides of protein X1 of SARS-CoV Urbani [2] | Binding of serum 6 to looped/cyclic peptides of protein X1 of SARS-CoV Urbani [2] | Binding of serum London to linear peptides of protein X1 of SARS-CoV Urbani [2] | Binding of serum London to looped/cyclic peptides of protein X1 of SARS-CoV Urbani [2] | Binding of serum SARS-green to linear peptides of protein X1 of SARS-CoV Urbani [2] | Binding of serum SARS-green to looped/cyclic peptides of protein X1 of SARS-CoV Urbani [2] | Binding of serum SARS-yellow to linear peptides of protein X1 of SARS-CoV Urbani [2] | Binding of serum SARS-yellow to looped/cyclic peptides of protein X1 of SARS-CoV Urbani [2]
0.5: Binding of Control serum LUMC to looped peptides [1] | Binding of serum 1a to linear peptides of protein X1 of SARS-CoV Urbani [2] | Binding of serum 37 to linear peptides of protein X1 of SARS-CoV Urbani [2]
0.3: Binding of Control serum Blood-bank to linear peptides [1] | Binding of Control serum LUMC to linear peptides [1] | Binding of serum 2 to linear peptides of protein X1 of SARS-CoV Urbani [2] | Binding of serum 6 to linear peptides of protein X1 of SARS-CoV Urbani [2] | Binding of serum 37 to looped/cyclic peptides of protein X1 of SARS-CoV Urbani [2] | Binding of serum 62 to looped/cyclic peptides of protein X1 of SARS-CoV Urbani [2]
0.1: Binding of a rabbit serum to linear peptides [3]

SRTLSYYKLGASQRV
0.3: Binding of serum 1b to looped/cyclic peptides of protein M of SARS-CoV Urbani [2] | Binding of serum London to linear peptides of protein M of SARS-CoV Urbani [2] | Binding of serum London to looped/cyclic peptides of protein M of SARS-CoV Urbani [2]
0.6: Binding of Control Serum Blood-Bank to Looped peptides of the protein M of SARS-CoV Urbani [1] | Rabbit serum linear peptides [3] | Rabbit serum looped peptides [3]
0.5: Binding of Control serum LUMC to linear peptides of the protein M of SARS-CoV Urbani [1] | Binding of serum 1b to linear peptides of protein M of SARS-CoV Urbani [2]
0.9: Binding of Control serum Blood-bank to linear peptides of the protein M of SARS-CoV Urbani [1] | Binding of serum 1a to looped/cyclic peptides of protein M of SARS-CoV Urbani [2] | Binding of serum 6 to looped/cyclic peptides of protein M of SARS-CoV Urbani [2]
0.2: Binding of serum SARS-green to linear peptides of protein M of SARS-CoV Urbani [2]
0.7: Binding of serum 2 to looped/cyclic peptides of protein M of SARS-CoV Urbani [2] | Binding of serum 62 to looped/cyclic peptides of protein M of SARS-CoV Urbani [2]
0.1: Binding of serum SARS-yellow to linear peptides of protein M of SARS-CoV Urbani [2]
0.8: Binding of Control serum LUMC to looped peptides of the protein M of SARS-CoV Urbani [1] | Binding of serum 1a to linear peptides of protein M of SARS-CoV Urbani [2] | Binding of serum 2 to linear peptides of protein M of SARS-CoV Urbani [2] | Binding of serum 37 to linear peptides of protein M of SARS-CoV Urbani [2] | Binding of serum 37 to looped/cyclic peptides of protein M of SARS-CoV Urbani [2] | Binding of serum 62 to linear peptides of protein M of SARS-CoV Urbani [2] | Binding of serum SARS-yellow to looped/cyclic peptides of protein M of SARS-CoV Urbani [2]
0.4: Binding of serum 6 to linear peptides of protein M of SARS-CoV Urbani [2] | Binding of serum SARS-green to looped/cyclic peptides of protein M of SARS-CoV Urbani [2]
